Results reported in patent US20220193025A1, “USE OF DIANHYDROHEXITOL TO ELIMINATE THE COSMETIC EFFECTS OF ACNE, DANDRUFF AND BAD ODORS” (ROQUETTE FRERES, priority 2019, published 2022).

Columns and labels:
Staphylococcus aureus = conditions: U.S. Pat. No. 9,295,626, table 2; cited from earlier work
[1] = system: Propionobacterium acnes strain; test: Example 3: microbial population count over 28 days after contamination (microtiter method, TTC); assay type: cell-based; conditions: for Number of colony forming strains after: 24 h / Number of colony forming strains after: 7 days / Number of colony forming strains after: 14 days / Number of colony forming strains after: 21 days / Number of colony forming strains after: 28 days: 22° C.
Description: (§1) The samples are prepared under sterile conditions and deposited in microplates (2-ml wells) with the concentrations hereunder. Two analysis controls were produced: a positive control corresponding to 0.5% Phenonip®; a negative control consisting of 0.85% physiological saline solution. Samples and controls are contaminated by three bacterial strains, Staphylococcus epidermidis, Corynebacterium xerosis and Propionobacterium acnes, with around 1.43×10^5 to 4.15×10^5 colony forming units per milliliter, denoted cfu/ml. After contamination, the samples are carefully mixed by suction-discharge cycles in order to ensure a uniform distribution of the microorganism. The whole is incubated at 22° C. during 28 days. The microbial population is sampled and counted at 24 hours, 7, 14, 21 and 28 days for each bacterial strain. The contaminated samples are collected and then deposited in serial dilutions in microtiter plates, in the presence of culture medium, which is a saline solution with 0.85% sodium chloride, and a dehydrogenase activity indicator reagent, which is 2,3,5-triphenyltetrazolium chloride (denoted TTC). The results are presented in the following pages with the variation of the microbial population over the 28 days of study, for the tested microbial strain. The measurements of microbial populations in the samples collected at each time, are carried out according to the following microtiter method, for one sample collection. In the 96 wells with a volume of 250 μL of a microtiter plate, 20 μL of the collected sample are diluted by a factor of 10 by dispersion in 180 μL of Letheen broth (Difco, ref. 268110) containing 1.5% of Tween 80 (Sigma, ref. […]) and TTC (Sigma, ref. […]). The microplate is incubated for 48 hours at 32.5° C., and the growth of the microorganisms is monitored by the color change, from colorless to red/pink. The highest reciprocal dilution indicating a growth makes it possible to determine the log number of each microorganism at each time. The measurements of microbial populations taken at each collection time are expressed as colony forming units/ml.

[2] = system: Staphylococcus epidermidis strain; test: as above; assay type: cell-based; conditions: for Number of colony forming strains after: 24 h / Number of colony forming strains after: 7 days / Number of colony forming strains after: 14 days / Number of colony forming strains after: 21 days / Number of colony forming strains after: 28 days: 22° C.
Description: as §1

[3] = system: Propionobacterium acnes strain; test: Example 1: microbial population count over 28 days after contamination (microtiter method, TTC); assay type: cell-based; conditions: for Number of colony forming strains after: 24 h / Number of colony forming strains after: 7 days / Number of colony forming strains after: 14 days / Number of colony forming strains after: 21 days / Number of colony forming strains after: 28 days: 22° C.
Description: as §1, with “by a Propionobacterium acnes” for “by three”, “bacterial strain” for “bacterial strains, Staphylococcus epidermidis, Corynebacterium xerosis and Propionobacterium acnes,”, “for the Propionobacterium acnes” for “for each”

[4] = system: Corynobacterium xerosis strain; test: Example 3: microbial population count over 28 days after contamination (microtiter method, TTC); assay type: cell-based, Corynebacterium xerosis; conditions: for Number of colony forming strains after: 24 h / Number of colony forming strains after: 7 days / Number of colony forming strains after: 14 days / Number of colony forming strains after: 21 days / Number of colony forming strains after: 28 days: 22° C.
Description: as §1

Candida albicans = conditions: U.S. Pat. No. 9,295,626, table 2; cited from earlier work
Aspergillus brasiliensis = conditions: U.S. Pat. No. 9,295,626, table 2; cited from earlier work
[5] = after 24 hours, for the three doses tested

## O[C@@H]1CO[C@H]2[C@@H]1OC[C@@H]2O [isosorbide, 1,4-3,6-dianhydrosorbitol]
Staphylococcus aureus
  minimum inhibitory concentration: 10%
[1]; Example 3
  bactericidal effect (conclusion in words): bactericide
[1]; after 24 hours, Example 3
  colony forming strain observed: no colony forming strain is observed
[1]; dose 1%
  Number of colony forming strains after: 24 h: 0 colony forming units/ml
  Number of colony forming strains after: 7 days: 0 colony forming units/ml
  Number of colony forming strains after: 14 days: 0 colony forming units/ml
  Number of colony forming strains after: 21 days: 0 colony forming units/ml
  Number of colony forming strains after: 28 days: 0 colony forming units/ml
[1]; dose 5%
  Number of colony forming strains after: 24 h: 0 colony forming units/ml
  Number of colony forming strains after: 7 days: 0 colony forming units/ml
  Number of colony forming strains after: 14 days: 0 colony forming units/ml
  Number of colony forming strains after: 21 days: 0 colony forming units/ml
  Number of colony forming strains after: 28 days: 0 colony forming units/ml
[1]; dose 9%
  Number of colony forming strains after: 24 h: 0 colony forming units/ml
  Number of colony forming strains after: 7 days: 0 colony forming units/ml
  Number of colony forming strains after: 14 days: 0 colony forming units/ml
  Number of colony forming strains after: 21 days: 0 colony forming units/ml
  Number of colony forming strains after: 28 days: 0 colony forming units/ml
[2]
  bactericidal effect (conclusion in words): weak bactericide
[2]; [5]
  reduction of the number of colony forming strains: at least 2 log 10
[2]; after 7 days
  colony forming strain observed: not any colony forming strain
[2]; dose 1%
  Number of colony forming strains after: 24 h: 4 × 10^3 colony forming units/ml
  Number of colony forming strains after: 7 days: 0 colony forming units/ml
  Number of colony forming strains after: 14 days: 0 colony forming units/ml
  Number of colony forming strains after: 21 days: 0 colony forming units/ml
  Number of colony forming strains after: 28 days: 0 colony forming units/ml
[2]; dose 5%
  Number of colony forming strains after: 24 h: 1 × 10^3 colony forming units/ml
  Number of colony forming strains after: 7 days: 0 colony forming units/ml
  Number of colony forming strains after: 14 days: 0 colony forming units/ml
  Number of colony forming strains after: 21 days: 0 colony forming units/ml
  Number of colony forming strains after: 28 days: 0 colony forming units/ml
[2]; dose 9%
  Number of colony forming strains after: 24 h: 7 × 10^2 colony forming units/ml
  Number of colony forming strains after: 7 days: 0 colony forming units/ml
  Number of colony forming strains after: 14 days: 0 colony forming units/ml
  Number of colony forming strains after: 21 days: 0 colony forming units/ml
  Number of colony forming strains after: 28 days: 0 colony forming units/ml
[3]; Example 1
  bactericidal effect (conclusion in words): bactericide
[3]; after 24 hours, Example 1
  colony forming strain observed: no colony forming strain is observed
[3]; dose 1%
  Number of colony forming strains after: 24 h: 0 colony forming units/ml
  Number of colony forming strains after: 7 days: 0 colony forming units/ml
  Number of colony forming strains after: 14 days: 0 colony forming units/ml
  Number of colony forming strains after: 21 days: 0 colony forming units/ml
  Number of colony forming strains after: 28 days: 0 colony forming units/ml
[3]; dose 5%
  Number of colony forming strains after: 24 h: 0 colony forming units/ml
  Number of colony forming strains after: 7 days: 0 colony forming units/ml
  Number of colony forming strains after: 14 days: 0 colony forming units/ml
  Number of colony forming strains after: 21 days: 0 colony forming units/ml
  Number of colony forming strains after: 28 days: 0 colony forming units/ml
[3]; dose 9%
  Number of colony forming strains after: 24 h: 0 colony forming units/ml
  Number of colony forming strains after: 7 days: 0 colony forming units/ml
  Number of colony forming strains after: 14 days: 0 colony forming units/ml
  Number of colony forming strains after: 21 days: 0 colony forming units/ml
  Number of colony forming strains after: 28 days: 0 colony forming units/ml
[4]
  bactericidal effect (conclusion in words): moderate bactericide
[4]; [5]
  reduction of the number of colony forming strains: at least 3 log 10
[4]; after 7 days
  colony forming strain observed: not any more colony forming strain
[4]; dose 1%
  Number of colony forming strains after: 24 h: 4 × 10^2 colony forming units/ml
  Number of colony forming strains after: 7 days: 0 colony forming units/ml
  Number of colony forming strains after: 14 days: 0 colony forming units/ml
  Number of colony forming strains after: 21 days: 0 colony forming units/ml
  Number of colony forming strains after: 28 days: 0 colony forming units/ml
[4]; dose 5%
  Number of colony forming strains after: 24 h: 1 × 10^2 colony forming units/ml
  Number of colony forming strains after: 7 days: 0 colony forming units/ml
  Number of colony forming strains after: 14 days: 0 colony forming units/ml
  Number of colony forming strains after: 21 days: 0 colony forming units/ml
  Number of colony forming strains after: 28 days: 0 colony forming units/ml
[4]; dose 9%
  Number of colony forming strains after: 24 h: 3.7 × 10^2 colony forming units/ml
  Number of colony forming strains after: 7 days: 0 colony forming units/ml
  Number of colony forming strains after: 14 days: 0 colony forming units/ml
  Number of colony forming strains after: 21 days: 0 colony forming units/ml
  Number of colony forming strains after: 28 days: 0 colony forming units/ml
Candida albicans
  minimum inhibitory concentration: 10%
Aspergillus brasiliensis
  minimum inhibitory concentration: 10%
